Literature values, collected in US10047050B2, “3,4-di-substituted pyridine compound, methods of using and compositions comprising the same” (ARDEA BIOSCIENCES, INC., priority 2011, dated 2018).

Details: cited from earlier work
[1] = individuals treated with probenecid

| SMILES | incidence of side effects (of all individuals treated with the drug) [%] | individuals who develop intolerance [1] | individuals who fail to achieve reduction of serum uric acid levels <6 mg/dL [1] |
| --- | --- | --- | --- |
| Oc1ncnc2[nH]ncc12 [Allopurinol, allopurinol] | 20 |  |  |
| CCCN(CCC)S(=O)(=O)c1ccc(C(=O)O)cc1 [probenecid] |  | one-third | 25-50% |
